These are literature values, as cited in patent US6500450B1, “Composition for treating migraine headaches” (priority 1998, dated 2002).

In data set [1] the test system is migraine. The settings on record: in vivo.
Data set [2] has as its system patients with recurrent migraines. Particulars: 49 patients.
The subject of data set [3] is patients with migraine.
The subject of data set [4] is migraine occurrence in patients.
Data set [5] has as its system moderate to severe migraine headaches.
Setting [6] is: 400 mg/day with breakfast for at least three months.

The structures appear in SMILES notation. Structures can show the parent of a compound that is named as a salt.

For `CC(C)NCC(O)COc1cccc2ccccc12` (stereo not drawn) [Propranolol], in data set [1], the “efficacy in migraine prophylaxis” value is “effective”; the side effects entry was “fatigue, depression, impotence, insomnia, dizziness, and cold extremities”.

`Cc1cc2nc3c(=O)[nH]c(=O)nc-3n(C[C@H](O)[C@H](O)[C@H](O)CO)c2cc1C` [riboflavin]: in data set [2] (400 mg/day for at least three months), the side effects entry is on record as “One patient stopped treatment because of gastric intolerance, but no other side effects were reported”. For the same compound, in data set [2] (setting [6]), the “fall in the mean number of migraine attacks” value is given as 67% and the “improvement of migraine severity” value was 68%.

Take `CN1C[C@H](C(=O)N[C@]2(C)O[C@@]3(O)[C@@H]4CCCN4C(=O)[C@H](Cc4ccccc4)N3C2=O)C=C2c3cccc4[nH]cc(c34)C[C@H]21` [ergotamine, ergotamine tartrate]: in data set [3] (1-mg rectal suppository, patients with migraine), the “patients with complete headache relief within three hours of taking the drug” value was 73%. Moreover, the “consequence of frequent use” value in data set [3] (frequent use of the drug) was “rebound headache”. Further, the side effects entry in data set [3] (human, in vivo) was “nausea, vomiting, abdominal pain, muscle cramps, and occasionally, distal paresthesias”.

For the compound `CC[C@@H](CO)NC(=O)[C@@H]1C=C2c3cccc4c3c(cn4C)C[C@H]2N(C)C1` [methysergide, methysergide maleate], the “patients in whom migraine occurrence is reduced by more than half” value in data set [4] (6 mg dose, migraine prophylaxis) was 60%. Also, the “adverse effect of long-term use” value in data set [4] (long-term use) is “associated with retroperitoneal fibrosis”.

As for `CNS(=O)(=O)Cc1ccc2[nH]cc(CCN(C)C)c2c1` [sumatriptan], in data set [5] (dose of six milligrams, injectable), the “reduction of the intensity of moderate to severe migraine headaches” value is 70%. Besides, the side effects result in data set [5] (stated for this type of drug) is “distal paresthesias, tingling, heaviness, and a sensation of pressure”.
